Experimental data taken from patent US20240335431A1, “1-H-PYRROLO[2,3-c]PYRIDINE COMPOUNDS” (Acerta Pharma B.V., priority 2023, published 2024).
Like-named read-outs stand apart in the source and are kept apart here.

Assays:
hERG = hERG (Homo sapiens (Human), UniProt Q12809); experiment: hERG assay 1 (standard), SyncroPatch 384PE; format: cell-based; conditions: CHO cells, room temperature, up to 40 uM
How it was run: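 Automated patch clamp on hERG-expressing CHO-K1 cells at room temperature, +60/−40 mV protocol every 15 s. Six-point cumulative concentrations 139 nM to 40 uM (0.33% DMSO final); IC50 from one-site fit of % inhibition. Wells required ≥30 MegaOhm seal, current >0.2 nA, Z prime >0.4.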

OCI-AML3 cells = experiment: Proliferation assay, OCI-AML3 (CellTiter-Glo, 7 days); format: cell-based, human
How it was run: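 Cells seeded at 125 (MOLM-13), 300 (MV4;11), 75 (OCI-AML3) or 200 (HEL) per well were exposed to 3.16-fold compound dilutions (0.1% DMSO) for 7 days at 37° C. Viability by CellTiter-Glo luminescence, normalized to DMSO (100%) and day-0 plate (0%); IC50 from one-site dose-response fit.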

[1] = Human liver microsomes (HLMs) intrinsic clearance assay; format: in vitro ADME; conditions: for microsomal CLint at 1 µM: pH 7.4, HLM CLint
[2] = human, microsomes, 1 µM, pH 7.4

Sequence of hERG (Q12809 whole entry): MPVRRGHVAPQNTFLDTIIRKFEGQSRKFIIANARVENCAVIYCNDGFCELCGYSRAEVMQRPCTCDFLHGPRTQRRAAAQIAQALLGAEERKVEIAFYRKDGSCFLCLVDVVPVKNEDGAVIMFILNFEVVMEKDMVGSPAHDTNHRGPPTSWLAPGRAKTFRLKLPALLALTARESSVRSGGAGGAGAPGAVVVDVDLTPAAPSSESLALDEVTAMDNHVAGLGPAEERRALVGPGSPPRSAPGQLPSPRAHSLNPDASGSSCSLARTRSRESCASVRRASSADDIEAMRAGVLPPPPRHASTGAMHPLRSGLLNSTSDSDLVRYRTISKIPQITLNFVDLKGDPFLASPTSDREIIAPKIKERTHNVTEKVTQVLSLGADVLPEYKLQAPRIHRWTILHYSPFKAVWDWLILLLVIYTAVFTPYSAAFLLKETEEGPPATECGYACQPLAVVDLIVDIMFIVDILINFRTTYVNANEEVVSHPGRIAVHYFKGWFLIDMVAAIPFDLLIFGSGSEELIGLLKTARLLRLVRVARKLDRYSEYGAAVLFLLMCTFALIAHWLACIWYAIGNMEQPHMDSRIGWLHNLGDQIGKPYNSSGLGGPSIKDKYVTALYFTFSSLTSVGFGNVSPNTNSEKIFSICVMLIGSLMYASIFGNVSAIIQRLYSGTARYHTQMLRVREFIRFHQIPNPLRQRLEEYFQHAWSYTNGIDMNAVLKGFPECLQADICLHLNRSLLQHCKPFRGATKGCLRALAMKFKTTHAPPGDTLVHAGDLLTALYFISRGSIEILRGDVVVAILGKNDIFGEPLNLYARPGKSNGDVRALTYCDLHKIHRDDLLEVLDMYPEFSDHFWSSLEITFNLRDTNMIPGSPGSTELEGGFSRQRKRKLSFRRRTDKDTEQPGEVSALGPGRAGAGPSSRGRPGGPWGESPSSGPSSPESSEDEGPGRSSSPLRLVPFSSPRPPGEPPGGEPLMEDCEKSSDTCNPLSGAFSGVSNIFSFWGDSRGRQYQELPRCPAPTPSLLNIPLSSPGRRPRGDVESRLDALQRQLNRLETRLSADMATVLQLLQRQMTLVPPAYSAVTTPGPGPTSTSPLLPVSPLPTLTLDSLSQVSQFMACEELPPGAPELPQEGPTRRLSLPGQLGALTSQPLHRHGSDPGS

Row | SMILES | IC50 (OCI-AML3 cells; Homo sapiens, OCI-AML-3, 168 h) | microsomal CLint at 1 µM ([1]; human, microsomes) | HLM CLint [1, 2] | IC50 (OCI-AML3 cells) | IC50 (hERG) | HLM CLint ([1]; 1 mg/mL HLM, NADPH)
1 | CC(C)N(C(=O)c1cc(F)ccc1-n1cc(C(=O)C2CCN(C(=O)[C@H]3NC[C@@H]4CC[C@@H]43)CC2)c2ccncc21)C(C)C (relative stereo) [Example 25, rel-2-(3-(1-((1R,2R,5S)-3-Azabicyclo[3.2.0]heptane-2-carbonyl)piperidine-4-carbonyl)-1H-pyrrolo[2,3-c]pyridin-1-yl)-5-fluoro-N,N-diisopropylbenzamide] | 0.037 µM | 94 µL/min/mg |  |  | > 40 µM | 
2 | CCN(C(=O)c1cc(F)ccc1-n1c(C)c(C(=O)C2CCN(C(=O)[C@H]3NC[C@@H]4C[C@@H]43)CC2)c2ccncc21)C(C)C (single isomer, unassigned) [Example 48-2] |  |  | 55 µL/min/mg | 0.023 µM | > 40 µM | 
3 | C[C@@H]1CCC[C@H](C)N1C(=O)c1cc(F)ccc1-n1cc(C(=O)C2CCN(C(=O)[C@H]3N[C@@H]4CC[C@H]3C4)CC2)c2ccncc21 [Example 33, (1-((1R,3S,4S)-2-Azabicyclo[2.2.1]heptane-3-carbonyl)piperidin-4-yl)(1-(2-((2R,6S)-2,6-dimethylpiperidine-1-carbonyl)-4-fluorophenyl)-1H-pyrrolo[2,3-c]pyridin-3-yl)methanone] | 0.207 µM | 50 µL/min/mg |  |  | > 40 µM | 
4 | CC(C)N(C(=O)c1cc(F)ccc1-n1cc(C(=O)C2CN(C(=O)[C@H]3N[C@@H]4CC[C@H]3C4)C2)c2ccnc(F)c21)C(C)C [Example 15, 2-(3-(1-((1R,3S,4S)-2-Azabicyclo[2.2.1]heptane-3-carbonyl)azetidine-3-carbonyl)-7-fluoro-1H-pyrrolo[2,3-c]pyridin-1-yl)-5-fluoro-N,N-diisopropylbenzamide] | 0.103 µM | 132 µL/min/mg |  |  | 24.9 µM | 
5 | CC(C)N(C(=O)c1cc(F)ccc1-n1cc(C(=O)C2CN(C(=O)[C@H]3N[C@@H]4CC[C@H]3C4)C2)c2ccncc21)C(C)C [Example 5, 2-(3-(1-((1R,3S,4S)-2-Azabicyclo[2.2.1]heptane-3-carbonyl)azetidine-3-carbonyl)-1H-pyrrolo[2,3-c]pyridin-1-yl)-5-fluoro-N,N-diisopropylbenzamide] | 0.125 µM | 35 µL/min/mg |  |  | > 40 µM | 
6 | CCN(C(=O)c1cc(F)ccc1-n1c(C)c(C(=O)C2CCN(C(=O)[C@H]3NC[C@@H]4C[C@@H]43)CC2)c2ccncc21)C(C)C [Example 47, 2-(3-(1-((1S,2S,5R)-3-Azabicyclo[3.1.0]hexane-2-carbonyl)piperidine-4-carbonyl)-2-methyl-1H-pyrrolo[2,3-c]pyridin-1-yl)-N-ethyl-5-fluoro-N-isopropylbenzamide] | 0.026 µM | 54 µL/min/mg |  |  | > 40 µM | 
7 | Cc1c(C(=O)C2CCN(C(=O)[C@@H]3CCC4(CC4)N3)CC2)c2ccncc2n1-c1ccc(F)cc1C(=O)N1[C@H](C)COC[C@H]1C (single isomer, unassigned) [Example 58-2] | 0.035 µM |  |  |  | > 40 µM | 85 µL/min/mg
8 | CC(C)c1ncsc1-c1cc(F)ccc1-n1cc(C(=O)C2CCN(C(=O)[C@H]3N[C@@H]4CC[C@H]3C4)CC2)c2ccncc21.O=CO [Example 42, (1-((1R,3S,4S)-2-Azabicyclo[2.2.1]heptane-3-carbonyl)piperidin-4-yl)(1-(4-fluoro-2-(4-isopropylthiazol-5-yl)phenyl)-1H-pyrrolo[2,3-c]pyridin-3-yl)methanone 1·formic acid] | 0.076 µM | 219 µL/min/mg |  |  | > 40 µM | 
9 | Cc1c(C(=O)C2CCN(C(=O)[C@H]3NC[C@@H]4C[C@@H]43)CC2)c2ccncc2n1-c1ccc(F)cc1-c1cnccc1C(C)C [Example 54, (1-((1S,2S,5R)-3-Azabicyclo[3.1.0]hexane-2-carbonyl)piperidin-4-yl)(1-(4-fluoro-2-(4-isopropylpyridin-3-yl)phenyl)-2-methyl-1H-pyrrolo[2,3-c]pyridin-3-yl)methanone] | 0.043 µM | 73 µL/min/mg |  |  | 13.1 µM | 
10 | CC(C)N(C(=O)c1cc(F)ccc1-n1cc(C(=O)C2CCN(C(=O)[C@H]3N[C@@H]4CC[C@H]3C4)CC2)c2c(F)cncc21)C(C)C.O=CO [Example 44, 2-(3-(1-((1R,3S,4S)-2-Azabicyclo[2.2.1]heptane-3-carbonyl)piperidine-4-carbonyl)-4-fluoro-1H-pyrrolo[2,3-c]pyridin-1-yl)-5-fluoro-N,N-diisopropylbenzamide 1·formic acid] | 0.117 µM | 17 µL/min/mg |  |  | > 40 µM | 
11 | CCN(C(=O)c1cc(F)ccc1-n1c(C)c(C(=O)[C@@H]2CCN(C(=O)[C@@H]3CC[C@@H](C)N3)[C@@H](C)C2)c2ccncc21)C(C)C (stereo in doubt) [Example 65, N-Ethyl-5-fluoro-N-isopropyl-2-(2-methyl-3-((2S,4RS)-2-methyl-1-((2S,5R)-5-methylpyrrolidine-2-carbonyl)piperidine-4-carbonyl)-1H-pyrrolo[2,3-c]pyridin-1-yl)benzamide] | 0.126 µM | 55 µL/min/mg |  |  | > 40 µM | 
12 | CC(C)N(C(=O)c1cc(F)ccc1-n1cc(C(=O)C2CN(C(=O)[C@H]3N[C@H]4C[C@@H]3[C@@H](F)C4)C2)c2ccncc21)C(C)C [Example 7, 5-Fluoro-2-(3-(1-((1S,3S,4S,5S)-5-fluoro-2-azabicyclo[2.2.1]heptane-3-carbonyl)azetidine-3-carbonyl)-1H-pyrrolo[2,3-c]pyridin-1-yl)-N,N-diisopropylbenzamide] | 0.115 µM | 148 µL/min/mg |  |  | > 40 µM | 
13 | CC(C)N(C(=O)c1cc(F)ccc1-n1cc(C(=O)[C@@H]2CCN(C(=O)[C@H]3N[C@@H]4CC[C@H]3C4)C2)c2ccncc21)C(C)C [Example 3, 2-(3-((R)-1-((1R,3S,4S)-2-Azabicyclo[2.2.1]heptane-3-carbonyl)pyrrolidine-3-carbonyl)-1H-pyrrolo[2,3-c]pyridin-1-yl)-5-fluoro-N,N-diisopropylbenzamide] | 0.113 µM | 41 µL/min/mg |  |  | 38.8 µM | 

The next lines start with results.

Row | IC50 (OCI-AML3 cells; Homo sapiens, OCI-AML-3, 168 h) | microsomal CLint at 1 µM ([1]; human, microsomes) | HLM CLint [1, 2] | IC50 (OCI-AML3 cells) | SMILES | IC50 (hERG) | HLM CLint ([1]; 1 mg/mL HLM, NADPH)
14 | 0.037 µM |  | 52 µL/min/mg |  | Cc1c(C(=O)C2CCN(C(=O)[C@H]3NC[C@@H]4C[C@@H]43)CC2)c2ccncc2n1-c1ccc(F)cc1C(=O)N(CC(F)(F)F)C(C)C (single isomer, unassigned) [Example 51-2] | > 40 µM | 
15 |  |  | 155 µL/min/mg | 0.014 µM | Cc1c(C(=O)[C@@H]2CCN(C(=O)[C@H]3NC[C@@H]4C[C@@H]43)[C@@H](C)C2)c2ccncc2n1-c1ccc(F)cc1C(=O)N(CC(F)(F)F)C(C)C (single isomer, unassigned) [Example 53-3, 2-(3-((2R*,4S*)-1-((1S,2S,5R)-3-Azabicyclo[3.1.0]hexane-2-carbonyl)-2-methylpiperidine-4-carbonyl)-2-methyl-1H-pyrrolo[2,3-c]pyridin-1-yl)-5-fluoro-N-isopropyl-N-(2,2,2-trifluoroethyl)benzamide] | 31.4 µM | 
16 | 0.077 µM | 84 µL/min/mg |  |  | Cc1c(C(=O)C2CCN(C(=O)[C@H]3NC[C@@H]4C[C@@H]43)CC2)c2ccncc2n1-c1ccc(F)cc1C(=O)N(C(C)C)[C@H](C)C(F)(F)F (single isomer, unassigned) [Example 57-1] | > 38.5 µM | 
